According to ChEMBL document CHEMBL1201862, “PubChem BioAssay data set” (2004):
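Interpolation was linear, between the two tested concentrations surrounding the appropriate level; five concentrations were tested over 48 hours in 96-well plates. Abbreviation: GI50, concentration required for 50% inhibition of growth.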 Activity calls are given as the source filed them. No stated cut-off is given here; in the data, active = GI50 up to about 1.1 µM and inactive = higher.

Experiments:
Assay in all cases: inhibition of tumour cell growth, NCI panel, 48 h
786-0 = system: 786-0
A549 = system: A549
CAKI-1 = system: CAKI-1
COLO 205 = system: COLO 205
HOP-18 = system: HOP-18
HOP-62 = system: HOP-62
HOP-92 = system: HOP-92
HT-29 = system: HT-29
IGROV-1 = system: IGROV-1
OVCAR-4 = system: OVCAR-4
OVCAR-8 = system: OVCAR-8
SF-268 = system: SF-268
SK-MEL-2 = system: SK-MEL-2
SR = system: SR
SW-620 = system: SW-620
U-251 = system: U-251

## Cc1cccc2cc3cccc(C(=O)NCCN(C)C)c3nc12
786-0
  GI50: 0.129 µM (active)
A549
  GI50: 0.0171 µM (active)
CAKI-1
  GI50: 0.027 µM (active)
COLO 205
  GI50: 0.0798 µM (active)
HOP-18
  GI50: 0.399 µM (active)
HOP-62
  GI50: 0.0745 µM (active)
HOP-92
  GI50: 0.185 µM (active)
HT-29
  GI50: 0.131 µM (active)
IGROV-1
  GI50: 0.38 µM (active)
OVCAR-4
  GI50: 0.27 µM (active)
OVCAR-8
  GI50: 0.0925 µM (active)
SF-268
  GI50: 0.296 µM (active)
SK-MEL-2
  GI50: 0.579 µM (active)
SR
  GI50: 0.0224 µM (active)
SW-620
  GI50: 0.0394 µM (active)
U-251
  GI50: 0.0689 µM (active)

## COC(=O)c1cccc2c3ccccc3c3ccccc3c12
786-0
  GI50: 42.8 µM (inactive)
A549
  GI50: 44.5 µM (inactive)
CAKI-1
  GI50: 40.4 µM (inactive)
COLO 205
  GI50: 16.6 µM (inactive)
HOP-18
  GI50: 26.9 µM (inactive)
HOP-62
  GI50: > 100 µM (inactive)
HT-29
  GI50: 29.5 µM (inactive)
IGROV-1
  GI50: 62.8 µM (inactive)
OVCAR-4
  GI50: 64.3 µM (inactive)
OVCAR-8
  GI50: 24.4 µM (inactive)
SF-268
  GI50: 37.2 µM (inactive)
SK-MEL-2
  GI50: 24.8 µM (inactive)
SR
  GI50: 36.8 µM (inactive)
SW-620
  GI50: 43.5 µM (inactive)
U-251
  GI50: 26.1 µM (inactive)

## CC(=O)Nc1ccc(C2=N/C(=C\c3ccc(Cl)cc3)C(=O)O2)cc1
786-0
  GI50: 20.8 µM (inactive)
A549
  GI50: > 100 µM (inactive)
CAKI-1
  GI50: > 100 µM (inactive)
COLO 205
  GI50: 39.2 µM (inactive)
HOP-18
  GI50: > 100 µM (inactive)
HOP-62
  GI50: > 100 µM (inactive)
HOP-92
  GI50: 33.7 µM (inactive)
HT-29
  GI50: 60.7 µM (inactive)
IGROV-1
  GI50: > 100 µM (inactive)
OVCAR-4
  GI50: 65 µM (inactive)
OVCAR-8
  GI50: 32.1 µM (inactive)
SF-268
  GI50: 34.3 µM (inactive)
SK-MEL-2
  GI50: > 100 µM (inactive)
SR
  GI50: 18.7 µM (inactive)
SW-620
  GI50: 8.91 µM (inactive)
U-251
  GI50: 38.5 µM (inactive)

## CCOC(=O)Cc1c(Cc2[nH]c(C(=O)OCc3ccccc3)c(CC(=O)OCC)c2CC(=O)OCC)[nH]c(C(=O)OCc2ccccc2)c1CC(=O)OCC
786-0
  GI50: > 100 µM (inactive)
A549
  GI50: > 100 µM (inactive)
CAKI-1
  GI50: > 100 µM (inactive)
COLO 205
  GI50: > 100 µM (inactive)
HOP-18
  GI50: > 100 µM (inactive)
HOP-62
  GI50: > 100 µM (inactive)
HOP-92
  GI50: > 100 µM (inactive)
HT-29
  GI50: > 100 µM (inactive)
IGROV-1
  GI50: > 100 µM (inactive)
OVCAR-8
  GI50: > 100 µM (inactive)
SF-268
  GI50: > 100 µM (inactive)
SR
  GI50: > 100 µM (inactive)
SW-620
  GI50: > 100 µM (inactive)
U-251
  GI50: > 100 µM (inactive)

## NC(=O)NCc1c(C(N)=O)ncn1Cc1ccccc1
786-0
  GI50: > 100 µM (inactive)
A549
  GI50: > 100 µM (inactive)
CAKI-1
  GI50: > 100 µM (inactive)
COLO 205
  GI50: > 100 µM (inactive)
HOP-18
  GI50: > 100 µM (inactive)
HOP-62
  GI50: > 100 µM (inactive)
HOP-92
  GI50: > 100 µM (inactive)
HT-29
  GI50: > 100 µM (inactive)
IGROV-1
  GI50: > 100 µM (inactive)
OVCAR-4
  GI50: > 100 µM (inactive)
OVCAR-8
  GI50: > 100 µM (inactive)
SW-620
  GI50: > 100 µM (inactive)
U-251
  GI50: > 100 µM (inactive)

## COC(=O)C1=C(C)N(NC(=O)c2ccccc2)C(C)(O)C12CCOC2=O (centres undefined)
786-0
  GI50: 0.195 µM (active)
A549
  GI50: > 100 µM (inactive)
CAKI-1
  GI50: > 100 µM (inactive)
COLO 205
  GI50: > 100 µM (inactive)
HOP-18
  GI50: > 100 µM (inactive)
HOP-62
  GI50: > 100 µM (inactive)
HT-29
  GI50: > 100 µM (inactive)
IGROV-1
  GI50: > 100 µM (inactive)
OVCAR-4
  GI50: > 100 µM (inactive)
OVCAR-8
  GI50: > 100 µM (inactive)
SF-268
  GI50: > 100 µM (inactive)
SK-MEL-2
  GI50: 0.608 µM (active)
SW-620
  GI50: > 100 µM (inactive)
U-251
  GI50: > 100 µM (inactive)

## C=C1CC[C@@H]2C(C)(C)C(O)CCC2(C)C1COc1ccc2ccc(=O)oc2c1 (some centres undefined)
786-0
  GI50: 21.5 µM (inactive)
A549
  GI50: 17.2 µM (inactive)
COLO 205
  GI50: 14.9 µM (inactive)
HOP-18
  GI50: 19.6 µM (inactive)
HOP-62
  GI50: 19.1 µM (inactive)
HOP-92
  GI50: 17.3 µM (inactive)
HT-29
  GI50: 18.9 µM (inactive)
IGROV-1
  GI50: 18.9 µM (inactive)
OVCAR-4
  GI50: 13.5 µM (inactive)
OVCAR-8
  GI50: 17.2 µM (inactive)
SF-268
  GI50: 18.9 µM (inactive)
SK-MEL-2
  GI50: 17.4 µM (inactive)
SR
  GI50: 23.6 µM (inactive)
SW-620
  GI50: 22.1 µM (inactive)
U-251
  GI50: 17.7 µM (inactive)

## Cc1cccc(C(C)(C)C)c1NC(=O)CCl
786-0
  GI50: > 100 µM (inactive)
A549
  GI50: > 100 µM (inactive)
CAKI-1
  GI50: > 100 µM (inactive)
COLO 205
  GI50: > 100 µM (inactive)
HOP-18
  GI50: > 100 µM (inactive)
HOP-62
  GI50: > 100 µM (inactive)
HT-29
  GI50: > 100 µM (inactive)
IGROV-1
  GI50: > 100 µM (inactive)
OVCAR-4
  GI50: > 100 µM (inactive)
OVCAR-8
  GI50: > 100 µM (inactive)
SF-268
  GI50: > 100 µM (inactive)
SK-MEL-2
  GI50: > 100 µM (inactive)
SR
  GI50: > 100 µM (inactive)
SW-620
  GI50: > 100 µM (inactive)
U-251
  GI50: > 100 µM (inactive)

## CSc1cc(C(C)(C)C)ccc1C(O)c1ccc(C(C)(C)C)cc1SC
786-0
  GI50: 10.8 µM (inactive)
A549
  GI50: 10.6 µM (inactive)
CAKI-1
  GI50: 11.3 µM (inactive)
COLO 205
  GI50: 11 µM (inactive)
HOP-18
  GI50: 15.5 µM (inactive)
HOP-62
  GI50: 13.5 µM (inactive)
HOP-92
  GI50: 14.5 µM (inactive)
HT-29
  GI50: 5.79 µM (inactive)
IGROV-1
  GI50: 10.1 µM (inactive)
OVCAR-4
  GI50: 10.9 µM (inactive)
OVCAR-8
  GI50: 11.4 µM (inactive)
SF-268
  GI50: 13.3 µM (inactive)
SK-MEL-2
  GI50: 15.1 µM (inactive)
SR
  GI50: 10.2 µM (inactive)
SW-620
  GI50: 11.3 µM (inactive)
U-251
  GI50: 14.1 µM (inactive)
